Assay results taken from ChEMBL document CHEMBL2375290, “Nonclassical antifolates, part 3: synthesis, biological evaluation and molecular modeling study of some new 2-heteroarylthio-quinazolin-4-ones” (Eur J Med Chem, 2013).

Assays:
Dihydrofolate reductase = biological target: T1, Dihydrofolate reductase (Bos taurus, UniProt P00376); test: Inhibition of bovine DHFR after 2 mins by spectrophotometry
T1 sequence (P00376 whole entry): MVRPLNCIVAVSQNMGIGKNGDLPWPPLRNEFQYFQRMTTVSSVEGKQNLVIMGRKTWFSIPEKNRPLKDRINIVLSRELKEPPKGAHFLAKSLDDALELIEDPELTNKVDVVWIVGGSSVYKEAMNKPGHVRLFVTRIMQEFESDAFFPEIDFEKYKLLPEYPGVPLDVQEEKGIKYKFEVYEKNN

Micrococcus luteus = test: Antimicrobial activity against Micrococcus luteus at 200 ug after 24 hrs by agar disc diffusion method; assay type: functional; conditions: read-out: DIZ
Escherichia coli = test: Antimicrobial activity against Escherichia coli at 200 ug after 24 hrs by agar disc diffusion method; assay type: functional; conditions: read-out: DIZ
Pseudomonas aeruginosa = test: Antimicrobial activity against Pseudomonas aeruginosa at 200 ug after 24 hrs by agar disc diffusion method; assay type: functional; conditions: read-out: DIZ
Bacillus subtilis = test: Antimicrobial activity against Bacillus subtilis at 200 ug after 24 hrs by agar disc diffusion method; assay type: functional; conditions: read-out: DIZ
Staphylococcus aureus = test: Antimicrobial activity against Staphylococcus aureus at 200 ug after 24 hrs by agar disc diffusion method; assay type: functional; conditions: read-out: DIZ
SNB-75 = test: Cytotoxicity against human SNB75 cells at 10 uM after 48 hrs by coulter counter analysis; assay type: functional; conditions: SNB-75, 48 h, read-out: GI
SK-MEL-5 = test: Cytotoxicity against human SK-MEL-5 cells at 10 uM after 48 hrs by coulter counter analysis; assay type: functional; conditions: SK-MEL-5, 48 h, read-out: GI
MDA-MB-231 = test: Cytotoxicity against human MDA-MB-231 cells at 10 uM after 48 hrs by coulter counter analysis; assay type: functional; conditions: MDA-MB-231, 48 h, read-out: GI
Hs-578T = test: Cytotoxicity against human Hs578T cells at 10 uM after 48 hrs by coulter counter analysis; assay type: functional; conditions: read-out: GI
SN12C = test: Cytotoxicity against human SN12C cells at 10 uM after 48 hrs by coulter counter analysis; assay type: functional; conditions: read-out: GI
HL-60(TB) = test: Cytotoxicity against human HL-60(TB) cells at 10 uM after 48 hrs by coulter counter analysis; assay type: functional; conditions: HL-60, 48 h, read-out: GI
RXF 393 = test: Cytotoxicity against human RXF393 cells at 10 uM after 48 hrs by coulter counter analysis; assay type: functional; conditions: RXF 393, 48 h, read-out: GI
UACC-62 = test: Cytotoxicity against human UACC62 cells at 10 uM after 48 hrs by coulter counter analysis; assay type: functional; conditions: UACC-62, 48 h, read-out: GI
CAKI-1 = test: Cytotoxicity against human Caki1 cells at 10 uM after 48 hrs by coulter counter analysis; assay type: functional; conditions: CAKI-1, 48 h, read-out: GI
OVCAR-4 = test: Cytotoxicity against human OVCAR4 cells at 10 uM after 48 hrs by coulter counter analysis; assay type: functional; conditions: OVCAR-4, 48 h, read-out: GI
RPMI-8226 = test: Cytotoxicity against human RPMI8226 cells at 10 uM after 48 hrs by coulter counter analysis; assay type: functional; conditions: RPMI-8226, 48 h, read-out: GI
MOLT-4 = test: Cytotoxicity against human MOLT4 cells at 10 uM after 48 hrs by coulter counter analysis; assay type: functional; conditions: MOLT-4, 48 h, read-out: GI
[1] = Cytotoxicity against human EKVX cells at 10 uM after 48 hrs by coulter counter analysis; assay type: functional; conditions: read-out: GI
IGROV-1 = test: Cytotoxicity against human IGROV1 cells at 10 uM after 48 hrs by coulter counter analysis; assay type: functional; conditions: IGROV-1, 48 h, read-out: GI
UO-31 = test: Cytotoxicity against human UO31 cells at 10 uM after 48 hrs by coulter counter analysis; assay type: functional; conditions: UO-31, 48 h, read-out: GI
MDA-MB-435 = test: Cytotoxicity against human MDA-MB-435 cells at 10 uM after 48 hrs by coulter counter analysis; assay type: functional; conditions: MDA-MB-435, 48 h, read-out: GI
PC-3 = test: Cytotoxicity against human PC3 cells at 10 uM after 48 hrs by coulter counter analysis; assay type: functional; conditions: PC-3, 48 h, read-out: GI
NCI-H23 = test: Cytotoxicity against human NCI-H23 cells at 10 uM after 48 hrs by coulter counter analysis; assay type: functional; conditions: NCI-H23, 48 h, read-out: GI
NCI-H226 = test: Cytotoxicity against human NCI-H226 cells at 10 uM after 48 hrs by coulter counter analysis; assay type: functional; conditions: NCI-H226, 48 h, read-out: GI
SF-295 = test: Cytotoxicity against human SF295 cells at 10 uM after 48 hrs by coulter counter analysis; assay type: functional; conditions: SF-295, 48 h, read-out: GI
NCI-H522 = test: Cytotoxicity against human NCI-H522 cells at 10 uM after 48 hrs by coulter counter analysis; assay type: functional; conditions: NCI-H522, 48 h, read-out: GI
SR = test: Cytotoxicity against human SR cells at 10 uM after 48 hrs by coulter counter analysis; assay type: functional; conditions: read-out: GI
CCRF-CEM = test: Cytotoxicity against human CCRF-CEM cells at 10 uM after 48 hrs by coulter counter analysis; assay type: functional; conditions: read-out: GI
A498 = test: Cytotoxicity against human A498 cells at 10 uM after 48 hrs by coulter counter analysis; assay type: functional; conditions: A498, 48 h, read-out: GI
T47D = test: Cytotoxicity against human T47D cells at 10 uM after 48 hrs by coulter counter analysis; assay type: functional; conditions: read-out: GI
A549 = test: Cytotoxicity against human A549/ATCC cells at 10 uM after 48 hrs by coulter counter analysis; assay type: functional; conditions: A549, 48 h, read-out: GI
MCF7 = test: Cytotoxicity against human MCF7 cells at 10 uM after 48 hrs by coulter counter analysis; assay type: functional; conditions: MCF7, 48 h, read-out: GI
Malme-3M = test: Cytotoxicity against human MALME-3M cells at 10 uM after 48 hrs by coulter counter analysis; assay type: functional; conditions: read-out: GI
SNB-19 = test: Cytotoxicity against human SNB19 cells at 10 uM after 48 hrs by coulter counter analysis; assay type: functional; conditions: SNB-19, 48 h, read-out: GI
[2] = Cytotoxicity against human NCI-ADR-RES cells at 10 uM after 48 hrs by coulter counter analysis; assay type: functional; conditions: read-out: GI
LOX IMVI = test: Cytotoxicity against human LOXIMVI cells at 10 uM after 48 hrs by coulter counter analysis; assay type: functional; conditions: read-out: GI

SMILES	IC50 (Dihydrofolate reductase)	zone of inhibition at 200 µg/disc (Micrococcus luteus)	zone of inhibition at 200 µg/disc (Escherichia coli)	zone of inhibition at 200 µg/disc (Pseudomonas aeruginosa)	zone of inhibition at 200 µg/disc (Bacillus subtilis)	zone of inhibition at 200 µg/disc (Staphylococcus aureus)	inhibition of growth at 10 µM (SNB-75)	inhibition of growth at 10 µM (SK-MEL-5)	inhibition of growth at 10 µM (MDA-MB-231)	inhibition of growth at 10 µM (Hs-578T)	inhibition of growth at 10 µM (SN12C)	inhibition of growth at 10 µM (HL-60(TB))	inhibition of growth at 10 µM (RXF 393)	inhibition of growth at 10 µM (UACC-62)	inhibition of growth at 10 µM (CAKI-1)	inhibition of growth at 10 µM (OVCAR-4)	inhibition of growth at 10 µM (RPMI-8226)	inhibition of growth at 10 µM (MOLT-4)	inhibition of growth at 10 µM [1]	inhibition of growth at 10 µM (IGROV-1)	further results
Cc1ccc2nc(Sc3cc([N+](=O)[O-])ccc3C(=O)O)n(Cc3ccccc3)c(=O)c2c1	12 µM	8 mm	8 mm	8 mm	8 mm	8 mm															
Cc1ccc2nc(Sc3cnc(N)s3)n(-c3ccccc3)c(=O)c2c1	0.8 µM	8 mm	8 mm	8 mm	8 mm	8 mm	< 10%	< 10%	18.1%	< 10%	< 10%	< 10%	< 10%	< 10%	20.9%	< 10%	< 10%	< 10%	< 10%	14.3%	inhibition of growth at 10 µM (UO-31): 20.7%; inhibition of growth at 10 µM (MDA-MB-435): < 10%; inhibition of growth at 10 µM (PC-3): 10.1%; inhibition of growth at 10 µM (NCI-H23): < 10%; inhibition of growth at 10 µM (NCI-H226): 12.4%; inhibition of growth at 10 µM (SF-295): < 10%; inhibition of growth at 10 µM (NCI-H522): 13.8%; inhibition of growth at 10 µM (SR): 37.8%; inhibition of growth at 10 µM (CCRF-CEM): < 10%; inhibition of growth at 10 µM (A498): < 10%; inhibition of growth at 10 µM (T47D): < 10%; inhibition of growth at 10 µM (A549): < 10%; inhibition of growth at 10 µM (MCF7): < 10%; inhibition of growth at 10 µM (Malme-3M): < 10%; inhibition of growth at 10 µM (SNB-19): < 10%; inhibition of growth at 10 µM [2]: < 10%; inhibition of growth at 10 µM (LOX IMVI): < 10%
COc1cc2nc(Sc3cnc(N)s3)n(Cc3ccccc3)c(=O)c2cc1OC	3 µM	8 mm	16 mm	8 mm	18 mm	17 mm	13.3%	12.9%	19.1%	< 10%	< 10%	< 10%	< 10%	< 10%	25.4%	< 10%	15.9%	< 10%	16.1%	< 10%	inhibition of growth at 10 µM (UO-31): 17.4%; inhibition of growth at 10 µM (MDA-MB-435): < 10%; inhibition of growth at 10 µM (PC-3): 22.4%; inhibition of growth at 10 µM (NCI-H23): < 10%; inhibition of growth at 10 µM (NCI-H226): 10.4%; inhibition of growth at 10 µM (SF-295): < 10%; inhibition of growth at 10 µM (NCI-H522): 19.8%; inhibition of growth at 10 µM (SR): < 10%; inhibition of growth at 10 µM (CCRF-CEM): 22.8%; inhibition of growth at 10 µM (A498): < 10%; inhibition of growth at 10 µM (T47D): < 10%; inhibition of growth at 10 µM (A549): < 10%; inhibition of growth at 10 µM (MCF7): < 10%; inhibition of growth at 10 µM (Malme-3M): < 10%; inhibition of growth at 10 µM (SNB-19): < 10%; inhibition of growth at 10 µM [2]: < 10%; inhibition of growth at 10 µM (LOX IMVI): 10.8%
CCOC(=O)c1nc(N)sc1Sc1nc2cc(OC)c(OC)cc2c(=O)n1-c1ccccc1	0.3 µM	8 mm	8 mm	8 mm	8 mm	8 mm															
Cc1ccc2nc(Sc3ncccc3C(=O)O)n(Cc3ccccc3)c(=O)c2c1	10 µM	12 mm	8 mm	8 mm	16 mm	15 mm	30%	14.4%	30.5%	12.5%	11.2%	< 10%	21.5%	30.4%	41.2%	16.2%	25.8%	15.3%	26.6%	16.3%	inhibition of growth at 10 µM (UO-31): 20.6%; inhibition of growth at 10 µM (MDA-MB-435): 21.8%; inhibition of growth at 10 µM (PC-3): 32.8%; inhibition of growth at 10 µM (NCI-H23): < 10%; inhibition of growth at 10 µM (NCI-H226): 21.2%; inhibition of growth at 10 µM (SF-295): 14.2%; inhibition of growth at 10 µM (NCI-H522): 24.4%; inhibition of growth at 10 µM (SR): 14.4%; inhibition of growth at 10 µM (CCRF-CEM): 16.5%; inhibition of growth at 10 µM (A498): 11.4%; inhibition of growth at 10 µM (T47D): < 10%; inhibition of growth at 10 µM (A549): < 10%; inhibition of growth at 10 µM (MCF7): 16.6%; inhibition of growth at 10 µM (Malme-3M): < 10%; inhibition of growth at 10 µM (SNB-19): 14.2%; inhibition of growth at 10 µM [2]: 12.7%; inhibition of growth at 10 µM (LOX IMVI): 13.8%
